Columns and labels:
T cells = test: Viable cell count of CCR5 gene targeted T cells; format: cell-based, human
Method: (FIG. 34d). Next, we tested the effect of compound treatment when titrating down the AAV6 donor amounts for gene targeting at the CCR5 locus. […] For this, we assessed the CD19-CAR knock-in at the TRAC gene locus in T cells using a previously reported gene editing strategy^87 (FIG. 14c).
Cell viability measurement. MTT assay was used for measuring the gene edited PSC viability. […] After this incubation, MTT was removed, and cells were lysed using 100 μl of lysis buffer (0.1N HCl and 0.5% SDS in isopropanol). After lysis, absorbance was measured at 570 nm with 650 nm as the reference using a SpectraMax M3 plate reader (Molecular devices). The absorbance values were used to calculate the cell viability of gene edited cells as a percentage relative to the mock cells. […] Viable cell counts were represented as percentage relative to the mock or untreated cells as indicated.

CCR5 locus in B cells = test: RNP/AAV6 gene targeting at CCR5 locus in B cells; format: cell-based, human; details: different concentrations (4, 2, 1, 0.5 and 0.1 μM); ddPCR
Method: B cell culture and genome editing. […] B cells were cultured at 37° C., 5% CO2, and ambient oxygen levels.
For genome editing, gRNA targeting CCR5 was complexed with Cas9 protein were complexed at a 2.5:1 ([…]) molar ratio at room temperature for 20 min. […] Cells were then replated at 1 million cells/ml in complete B cell activation media. […] Gene targeting was assessed at 3-days post-editing.

Compound: Cc1cc2ncnn2cc1Nc1ncc2c(n1)n(C1CCOCC1)c(=O)n2C [AZD7648, 7-methyl-2-((7-methyl-[1,2,4]triazolo[l,5-a]pyridin-6-yl)amino)-9-(tetrahydro-2H-pyran-4-yl)-7,9-dihydro-8H-purin-8-one]
- viable cell count (T cells; 0.5 μM, different AAV6 MOIs): very little drop in viable cell count
- viable cell count vs mock and untreated controls (T cells; 72 h post-gene targeting, different concentrations): minimal drop in viable cell count
- enhancement of gene targeting (CCR5 locus in B cells): about 2 fold

— US20250305004A1, “ENHANCING GENE TARGETING EFFICIENCY IN HUMAN CELLS WITH DNA-PK INHIBITOR TREATMENT” (The Board of Trustees of the Leland Stanford Junior …, priority 2022, published 2025)
